In paper PMC7408607, “A Multiple N-Glucosylated Peptide Epitope Efficiently Detecting Antibodies in Multiple Sclerosis” (Brain Sciences, 2020):
Read-outs that look alike come from different tables or passages of the source. Residues, ends and D or L forms follow the SMILES beside them. *: point of attachment. NH(β-D-Glc) = OC[C@H]1O[C@@H](N*)[C@H](O)[C@@H](O)[C@@H]1O

System: anti-CSF114(Glc) IgG antibodies from MS patients' serum
Test: Competitive (inhibition) ELISA on plates coated with CSF114(Glc)
Assay type: binding, human
Settings: for Log1/IC50 ± Std Error: Table S4, shortened peptides versus CSF114(Glc), one representative positive MS serum
Experimental: Washing steps were executed with an automatic Hydroflex microplate washer (Tecan Italia, Milano, Italy). After five washes with washing buffer containing 0.9% NaCl and 0.05% Tween 20, nonspecific binding sites were blocked with 100 μL per well fetal calf serum (FCS) buffer solution (10% in washing buffer) at room temperature for 60 min.
Antibody affinity was measured following the inhibition methods reported elsewhere. Semi-saturating sera dilution was calculated in preliminary titration curves (absorbance 0.7). Six different concentrations of each synthetic antigenic peptide probe were used as inhibitors. Then, sera samples at the selected dilution were incubated in parallel with increasing concentrations of the synthetic shortened peptide sequences (range 1 × 10^−10 to 1 × 10^−4) for 60 min at room temperature. All inhibition experiments were performed in duplicate or triplicate for each single MS patient’s serum positive to CSF114(Glc) separately. All experiments were repeated at least twice on two different working days.
After three washes, uninhibited antibodies were identified by adding 100 µL/well of alkaline phosphatase-conjugated anti-human immunoglobulin G (IgG, Sigma-Aldrich, Milano, Italy) diluted 1:8000 in washing buffer containing 10% FCS. The microplates were then incubated 3 h at room temperature and, after three washes, 100 µL of substrate solution consisting of 1 mg/mL p-nitrophenyl phosphate (Sigma-Aldrich, Milano, Italy) in 10% diethanolamine buffer (pH 9.8) were added. After approximately 30 min, the reaction was stopped with 1M NaOH solution (50 µL/well), and the absorbance was read in a multichannel ELISA reader (Tecan Sunrise, Männedorf, Switzerland) at 405 nm. The selected ELISA microplates, coating conditions, reagent dilutions, buffers, and incubation times were previously tested. The relationship between peptide concentrations and the absorbance values was represented graphically in absorbance inhibition percentage, and half-maximal response concentration values (IC50) were calculated.

[1] = Table S5, tri- and pentapeptides 9-22 and CSF114(Glc), representative MS serum (Figure 3)
[2] = Table S5, tri- and pentapeptides 9-22 and CSF114(Glc), representative MS serum (Figure 3), CI 95% in brackets, read-out: IC50(M)[CI95%]
[3] = serum MS1 (Figure S2A), one of three MS positive sera tested in parallel, read-out: IC50
[4] = serum MS3 (Figure S2C), read-out: IC50
[5] = shortened CSF114(Glc) series (Figure 2, Table S4), one representative positive MS patient's serum, inhibitor 1 × 10^−10 to 1 × 10^−4, absorbance 405 nm, non-linear regression least squares fit, read-out: IC50

SMILES | Log1/IC50 ± StdError [1] | further results
CC(=O)N[C@@H](CCC(=O)O)C(=O)N[C@@H](CCCNC(=N)N)C(=O)N[C@@H](CC(=O)N[C@@H]1O[C@H](CO)[C@@H](O)[C@H](O)[C@H]1O)C(=O)NCC(=O)N[C@@H](Cc1c[nH]cn1)C(N)=O [Ac-ERN(Glc)GH-NH2(20), Ac-ERN(Glc)GH-NH2] (Ac-ERD(NH(β-D-Glc))GH-NH2) | 5.95 ± 0.112 | 
CC(=O)N[C@@H](CCC(=O)O)C(=O)N[C@@H](CCCNC(=N)N)C(=O)N[C@@H](CC(=O)N[C@@H]1O[C@H](CO)[C@@H](O)[C@H](O)[C@H]1O)C(=O)NCC(=O)N[C@@H](CO)C(N)=O [Ac-ERN(Glc)GS-NH2(16), Ac-ERN(Glc)GS-NH2] (Ac-ERD(NH(β-D-Glc))GS-NH2) | 5.677 ± 0.1444 | 
CC(=O)N[C@@H](CCC(=O)O)C(=O)N[C@@H](CCCNC(=N)N)C(=O)N[C@@H](CC(=O)N[C@@H]1O[C@H](CO)[C@@H](O)[C@H](O)[C@H]1O)C(=O)NCC(=O)N[C@H](C(N)=O)[C@@H](C)O [Ac-ERN(Glc)GT-NH2(17), Ac-ERN(Glc)GT-NH2] (Ac-ERD(NH(β-D-Glc))GT-NH2) | 6.23 ± 0.14 | 
CC(=O)N[C@@H](CCC(=O)O)C(=O)N[C@@H](CCCNC(=N)N)C(=O)N[C@@H](CC(=O)N[C@@H]1O[C@H](CO)[C@@H](O)[C@H](O)[C@H]1O)C(=O)N[C@@H](CCCCN)C(=O)N[C@@H](Cc1c[nH]cn1)C(N)=O [Ac-ERN(Glc)KH-NH2(21), Ac-ERN(Glc)KH-NH2] (Ac-ERD(NH(β-D-Glc))KH-NH2) | 5.98 ± 0.1482 | 
CC(=O)N[C@@H](CCC(=O)O)C(=O)N[C@@H](CCCNC(=N)N)C(=O)N[C@@H](CC(=O)N[C@@H]1O[C@H](CO)[C@@H](O)[C@H](O)[C@H]1O)C(=O)N[C@@H](CCCCN)C(=O)N[C@@H](CO)C(N)=O [Ac-ERN(Glc)KS-NH2(18), Ac-ERN(Glc)KS-NH2] (Ac-ERD(NH(β-D-Glc))KS-NH2) | 5.59 ± 0.19 | 
CC(=O)N[C@@H](CCCCN)C(=O)NCC(=O)N[C@@H](CC(=O)N[C@@H]1O[C@H](CO)[C@@H](O)[C@H](O)[C@H]1O)C(=O)N[C@@H](C)C(=O)N[C@H](C(N)=O)[C@@H](C)O [Ac-KGN(Glc)AT-NH2(22), Ac-KGN(Glc)AT-NH2] (Ac-KGD(NH(β-D-Glc))AT-NH2) | 6.22 ± 0.07 | 
CC(=O)N[C@@H](CC(=O)N[C@@H]1O[C@H](CO)[C@@H](O)[C@H](O)[C@H]1O)C(=O)N[C@@H](C)C(=O)N[C@H](C(N)=O)[C@@H](C)O [Ac-N(Glc)AT-NH2(15), Ac-N(Glc)AT-NH2] | 5.005 ± 0.05558 | IC50 [2]: 7e-06 M
CC(=O)N[C@@H](CC(=O)N[C@@H]1O[C@H](CO)[C@@H](O)[C@H](O)[C@H]1O)C(=O)NCC(=O)N[C@@H](Cc1c[nH]cn1)C(N)=O [Ac-N(Glc)GH-NH2(13), Ac-N(Glc)GH-NH2] | 5.226 ± 0.0433 | IC50 [2]: 6.94e-06 M
CC(=O)N[C@@H](CC(=O)N[C@@H]1O[C@H](CO)[C@@H](O)[C@H](O)[C@H]1O)C(=O)NCC(=O)N[C@@H](CO)C(N)=O [Ac-N(Glc)GS-NH2(9), Ac-N(Glc)GS-NH2] | 5.137 ± 0.063 | 
CC(=O)N[C@@H](CC(=O)N[C@@H]1O[C@H](CO)[C@@H](O)[C@H](O)[C@H]1O)C(=O)NCC(=O)N[C@H](C(N)=O)[C@@H](C)O [Ac-N(Glc)GT-NH2(10), Ac-N(Glc)GT-NH2] | 5.129 ± 0.1170 | 
CC(=O)N[C@@H](CC(=O)N[C@@H]1O[C@H](CO)[C@@H](O)[C@H](O)[C@H]1O)C(=O)N[C@@H](CCCCN)C(=O)N[C@@H](Cc1c[nH]cn1)C(N)=O [Ac-N(Glc)KH-NH2(14), Ac-N(Glc)KH-NH2] | 5.160 ± 0.01636 | 
CC(=O)N[C@@H](CC(=O)N[C@@H]1O[C@H](CO)[C@@H](O)[C@H](O)[C@H]1O)C(=O)N[C@@H](CCCCN)C(=O)N[C@@H](CO)C(N)=O [Ac-N(Glc)KS-NH2(11), Ac-N(Glc)KS-NH2] | 5.942 ± 0.1911 | 
CC(=O)N[C@@H](CC(=O)N[C@@H]1O[C@H](CO)[C@@H](O)[C@H](O)[C@H]1O)C(=O)N[C@@H](CCCCN)C(=O)N[C@H](C(N)=O)[C@@H](C)O [Ac-N(Glc)KT-NH2(12), Ac-N(Glc)KT-NH2] | 6.010 ± 0.06024 | 
CSCC[C@H](NC(=O)[C@H](Cc1c[nH]c2ccccc12)NC(=O)CNC(=O)[C@H](Cc1ccc(O)cc1)NC(=O)[C@@H]1CCCN1C(=O)[C@H](C)NC(=O)[C@H](CC(C)C)NC(=O)[C@H](Cc1ccccc1)NC(=O)[C@@H](NC(=O)[C@H](CO)NC(=O)[C@H](Cc1c[nH]cn1)NC(=O)CNC(=O)[C@H](CC(=O)N[C@@H]1O[C@H](CO)[C@@H](O)[C@H](O)[C@H]1O)NC(=O)[C@H](CCCNC(=N)N)NC(=O)[C@H](CCC(=O)O)NC(=O)[C@@H](NC(=O)[C@H](CCCNC(=N)N)NC(=O)[C@@H]1CCCN1C(=O)[C@@H](N)[C@@H](C)O)C(C)C)C(C)C)C(=O)N[C@H](C(=O)N[C@@H](CCCCN)C(=O)O)C(C)C [CSF114(Glc) (1), CSF114(Glc), reference compound] | 6.46 ± 0.083 | Log1/IC50 ± Std Error: 6.14 ± 0.083; IC50 [3]: 5.2e-07 M; IC50 [4]: 5.12e-09 M; IC50 [5]: 9e-09 M
CC(=O)N[C@@H](CC(=O)N[C@@H]1O[C@H](CO)[C@@H](O)[C@H](O)[C@H]1O)C(=O)NCCCOCCOCCOCCCNC(=O)CCC(=O)NCCCC[C@H](NC(=O)CCC(=O)NCCCOCCOCCOCCCNC(=O)[C@H](CC(=O)N[C@@H]1O[C@H](CO)[C@@H](O)[C@H](O)[C@H]1O)NC(C)=O)C(=O)NCCCC[C@H](NC(=O)[C@H](CCCCNC(=O)CCC(=O)NCCCOCCOCCOCCCNC(=O)[C@H](CC(=O)N[C@@H]1O[C@H](CO)[C@@H](O)[C@H](O)[C@H]1O)NC(C)=O)NC(=O)CCC(=O)NCCCOCCOCCOCCCNC(=O)[C@H](CC(=O)N[C@@H]1O[C@H](CO)[C@@H](O)[C@H](O)[C@H]1O)NC(C)=O)C(=O)NCCC(=O)O [N-Glc MEP (24)] |  | IC50 [3]: 2.15e-08 M; IC50 [4]: 2.15e-08 M
CC(=O)N[C@H](C(=O)N[C@@H](CCC(=O)O)C(=O)N[C@@H](CCCNC(=N)N)C(=O)N[C@@H](CC(=O)N[C@@H]1O[C@H](CO)[C@@H](O)[C@H](O)[C@H]1O)C(=O)NCC(=O)N[C@@H](Cc1c[nH]cn1)C(=O)N[C@@H](CO)C(=O)N[C@H](C(N)=O)C(C)C)C(C)C [[Asn7(Glc)]CSF114(4‒11) (6), [Asn^7(Glc)] CSF114(4–11)] (Ac-VERD(NH(β-D-Glc))GHSV-NH2) |  | Log1/IC50 ± Std Error: 6.2 ± 0.29
CC(=O)N[C@@H](CCC(=O)O)C(=O)N[C@@H](CCCNC(=N)N)C(=O)N[C@@H](CC(=O)N[C@@H]1O[C@H](CO)[C@@H](O)[C@H](O)[C@H]1O)C(=O)NCC(=O)N[C@@H](Cc1c[nH]cn1)C(=O)N[C@@H](CO)C(N)=O [[Asn7(Glc)]CSF114(5‒10) (7), [Asn^7(Glc)] CSF114(5–10)] (Ac-ERD(NH(β-D-Glc))GHS-NH2) |  | Log1/IC50 ± Std Error: 5.4 ± 0.10; IC50 [5]: 3.5e-06 M
CC(=O)N[C@@H](CCCNC(=N)N)C(=O)N[C@@H](CC(=O)N[C@@H]1O[C@H](CO)[C@@H](O)[C@H](O)[C@H]1O)C(=O)NCC(=O)N[C@@H](Cc1c[nH]cn1)C(N)=O [[Asn7(Glc)]CSF114(6‒9) (8), [Asn^7(Glc)] CSF114(6–9)] (Ac-RD(NH(β-D-Glc))GH-NH2) |  | Log1/IC50 ± Std Error: 5.7 ± 0.25
